In patent US20100041620A1, “METHODS FOR IMPROVING FRONTAL BRAIN BIOENERGETIC METABOLISM” (priority 2008, published 2010):

How the values were obtained:
[1] = system: parieto-occipital cortex (POC); assay: 31P magnetic resonance spectroscopic imaging (3D-CSI, 4 Tesla) of phosphorus metabolites, parieto-occipital cortex comparison region; assay type: in vivo, human; details: 6 weeks oral citicoline, doses pooled, mean ± SD
Excerpt: (§1) ^31P data were collected using a three-dimensional chemical shift imaging (3D-CSI) technique at 4 Tesla in healthy middle-aged individuals. The use of 3D-CSI at high field has several advantages over previous methods: (1) increased spectral dispersion, which allows for increased precision of metabolite quantification; (2) post-processing grid shifting that allows for 3D placement of voxels of interest; and (3) the ability to co-register voxel placement between baseline and post-treatment follow-up. High-energy metabolite peaks quantified in the present study include phosphocreatine (PCr), β-nucleoside triphosphate (NTP, ATP in brain), and inorganic phosphate (Pi). Phospholipid membrane metabolite peaks quantified include anabolites, phosphomonoesters (PME), including phosphoethanolamine (PE) and phosphocholine (PC), and catabolites, phosphodiesters (PDE), including glycerophosphoethanolamine (GPE) and glycerolphosphocholine (GPC). A region of interest approach was used to examine phosphorus metabolite levels in the anterior cingulate cortex (ACC), given the notable age-related decline in frontal brain metabolism and impairment of frontally-mediated cognitive functions. A comparison region placed in the parieto-occipital cortex (POC) was also evaluated. It was hypothesized that oral supplementation with citicoline would improve frontal bioenergetic metabolism via elevations in availability of high-energy phosphates, as well as alteration of membrane phospholipid turnover by providing additional membrane precursors.
(§2) Subjects included sixteen neurologically and psychiatrically healthy adults (mean age=47.3±5.4 years; 8 females, 8 males). Trained research technicians administered a structured clinical psychiatric interview using the Structured Clinical Interview for DSM-IV (SCID). All subjects were free of Axis I diagnoses, neurological illness, severe medical problems, and psychoactive substance use.
(§3) Subjects were randomly assigned to receive a six-week supply of either 500 mg (4 males and 4 females) or 2000 mg (4 males and 4 females) of Cognizin® Citicoline (Kyowa Hakko Kogyo Co., Ltd., JAPAN). Subjects were instructed to take one capsule every day (500 mg group) or four capsules every day in a single dose (2000 mg group) for six weeks. […] Magnetic resonance spectroscopy (MRS) was completed on all subjects in two imaging sessions: one prior to beginning treatment (baseline) and one after completing six weeks of treatment.
(§4) All proton imaging was performed using the proton channel of the dual tuned open face proton-phosphorus TEM whole-head coil from Bioengineering Inc. (Minneapolis, Minn.) operating at a nominal frequency of 170.3 MHz. A 2D gradient-recalled echo imaging sequence (12 seconds duration) was used to acquire a single image in all three spatial dimensions (sagittal, coronal, axial) to quickly determine the patient's position and angle. High-contrast, T1-weighted sagittal, coronal images as well as T1 and T2-weighted transverse images of the entire brain were acquired using a three-dimensional, magnetization-prepared FLASH imaging sequence (3D-MP FLASH), allowing for clear segmentation between grey-matter, white-matter, and CSF, as well as clearly delineating between the different anatomical regions of interest. This approach was used to optimize ^31P-MRSI voxel positioning and volumetric correction in the regions of interest.
(§5) Phosphorus MRSI was performed using the phosphorus channel of the dual tuned proton-phosphorus TEM whole-head coil from Bioengineering Inc. (Minneapolis, Minn.) operating at 68.9 MHz. Phosphorus MRSI data were recorded using a three-dimensional chemical shift imaging (3D-CSI) sequence (Garraux, Neuroimage 10:149-162, 1999). […]

[2] = system: anterior cingulate cortex (ACC); assay: 31P magnetic resonance spectroscopic imaging (3D-CSI, 4 Tesla) of phosphorus metabolites, anterior cingulate cortex; assay type: in vivo, human
Excerpt: as §1, §2, §3, §4, §5

[3] = six weeks of citicoline supplementation, decrease
[4] = six weeks of citicoline supplementation, increase

`C[N+](C)(C)CCOP(=O)(O)OP(=O)([O-])OC[C@H]1O[C@@H](n2ccc(N)nc2=O)[C@H](O)[C@@H]1O` [citicoline, cytidine 5′-diphosphocholine] was tested, and the PCr/Pi ([1]; baseline 2.30 ± .34, ns) was 2.38 ± .53, the “PC, metabolite ratio relative to the total 31P signal” value ([1]; baseline .023 ± .009, ns) was “.026 ± .012” and the “GPE, metabolite ratio relative to the total 31P signal” value ([1]; baseline .034 ± .011, ns) was “.032 ± .014”. The “GPC, metabolite ratio relative to the total 31P signal” value ([1]; baseline .047 ± .017, ns) was “.047 ± .010”, the “β-NTP, metabolite ratio relative to the total 31P signal” value ([1]; baseline .063 ± .009, ns) was “.066 ± .010” and the “PE, metabolite ratio relative to the total 31P signal” value ([1]; baseline .065 ± .009, ns) was “.058 ± .010”. For the same molecule, the “Pi, metabolite ratio relative to the total 31P signal” value ([1]; baseline .072 ± .010, ns) was “.075 ± .013”, the “PME, metabolite ratio relative to the total 31P signal” value ([1]; baseline .088 ± .015, ns) was “.084 ± .011” and the “PCr, metabolite ratio relative to the total 31P signal” value ([1]; baseline .164 ± .016, ns) was “.173 ± .015”. For the same molecule, the “PDE, metabolite ratio relative to the total 31P signal” value ([1]; baseline .165 ± .029, ns) was “.152 ± .030”, the “PCr, metabolite ratio relative to the total 31P signal” value ([2]; 6 weeks oral citicoline, 500 and 2000 mg/day groups pooled, mean ± SD, baseline .154 ± .019, p .02) was “.162 ± .015” and the PCr/Pi ([2]; 6 weeks oral citicoline, doses pooled, mean ± SD, baseline 2.17 ± .46, p .03) was 2.82 ± 1.04. The “PC, metabolite ratio relative to the total 31P signal” value ([2]; 6 weeks oral citicoline, doses pooled, mean ± SD, baseline .026 ± .010, p .02) was “.019 ± .008”, the “GPE, metabolite ratio relative to the total 31P signal” value ([2]; 6 weeks oral citicoline, doses pooled, mean ± SD, baseline .039 ± .010, p .01) was “.030 ± .009” and the “PE, metabolite ratio relative to the total 31P signal” value ([2]; 6 weeks oral citicoline, doses pooled, mean ± SD, baseline .043 ± .015, p .04) was “.054 ± .008”. For the same molecule, the “GPC, metabolite ratio relative to the total 31P signal” value ([2]; 6 weeks oral citicoline, doses pooled, mean ± SD, baseline .051 ± .015, ns) was “.047 ± .016”, the “β-NTP, metabolite ratio relative to the total 31P signal” value ([2]; 6 weeks oral citicoline, doses pooled, mean ± SD, baseline .066 ± .012, p .05) was “.075 ± .014” and the “PME, metabolite ratio relative to the total 31P signal” value ([2]; 6 weeks oral citicoline, doses pooled, mean ± SD, baseline .069 ± .016, ns) was “.073 ± .012”. For the same molecule, the “Pi, metabolite ratio relative to the total 31P signal” value ([2]; 6 weeks oral citicoline, doses pooled, mean ± SD, baseline .073 ± .012, p .15) was “.065 ± .022”, the “PDE, metabolite ratio relative to the total 31P signal” value ([2]; 6 weeks oral citicoline, doses pooled, mean ± SD, baseline .183 ± .032, p .07) was “.154 ± .049” and the “decreased GPE, change from baseline” value [2, 3] was 23%. For the same molecule, the “decreased PC, change from baseline” value [2, 3] was 29%, the “increased PCr/Pi, change from baseline” value ([2]; six weeks of citicoline supplementation, doses pooled, increase) was 32% and the “increased PCr, change from baseline” value [2, 4] was 7%. The “increased PE, change from baseline” value [2, 4] was 26%, the “increased β-NTP, change from baseline” value [2, 4] was 14% and the “Pi, metabolite ratio relative to the total 31P signal” value ([2]; six weeks, 2000 mg/day group, baseline 0.069±0.010, p=0.57) was 0.073±0.019. The PCr/Pi ratio ([2]; six weeks, 2000 mg/day group, baseline 2.41±0.52, p=0.84) was 2.33±0.61, the “increased PCr/Pi, change from baseline” value ([2]; six weeks, low dose (500 mg), increase) was 66% and the “decreased Pi, change from baseline” value ([2]; six weeks, low dose only (500 mg), decrease) was 26%.
